Key:
XBP1s mRNA = XBP1s mRNA (qRT-PCR and RT-PCR with gel electrophoresis) in Tm-treated INS-1 cells; format: cell-based, rat; conditions: Tm 0.1 μg/mL co-treatment, 8 h
Method: INS-1 cells were treated with or without Tm (0.1 μg/mL) in the presence of 13d or DMSO for 8 h. (A) XBP1s mRNA levels were analyzed by qRT-PCR. Relative mRNA levels were normalized against the housekeeping gene Cyclophilin A using the comparative CT method. ** P<0.01 compared with Tm treatment alone. Bars indicate SD. (B) XBP1 mRNA levels were analyzed by RT-PCR and the products were resolved by agarose gel electrophoresis. The full-length (unspliced, XBP1u) and spliced (XBP1s) forms of XBP1 mRNA are indicated. Cyclophilin A mRNA was used as a loading control. Quantification was analyzed by ImageJ program shown at the bottom. The data shown are representative of 3 independent experiments.
Next, we determined the effect of 13d on the activation of IRE1α in β-cells under ER stress. […] We therefore used XBP1 splicing as a marker for the activation of the IRE1α pathway and determined the effect of 13d on IRE1α-mediated XBP1 splicing in INS-1 cells in the presence of Tm.
INS-1 cells were seeded at 4×10^5 cells/well in 6-well plates and treated with compounds for the indicated times. […] Relative mRNA levels were normalized against the housekeeping gene Cyclophilin A and were determined by ΔΔCt calculated from the difference in ΔCt values between the target gene and Cyclophilin A with and without treatment, based on comparative CT (cycle threshold) method. […]

[1] = system: STZ-induced diabetic mouse model; assay: Streptozotocin (STZ)-induced diabetic mouse model; format: in vivo, C57BL/6 mice
Method: (A) Fasting blood glucose levels were measured in STZ-injected mice treated with vehicle control (n=6) or 13d (n=7). C57BL/6J mice were injected intraperitoneally once daily for 5 days with STZ (50 mg/kg body weight) and with either vehicle (n=6 mice) or 13d (5 mg/kg body weight; n=7 mice). Injections of vehicle or 13d alone were then continued for 2 more weeks. (B) Glucose tolerance test. Blood glucose levels measured at indicated time points after intraperitoneal injection of glucose (2 g/kg body weight). (C) Pancreases were sectioned and slides were stained with anti-insulin antibody (green, β-cell marker), anti-glucagon antibody (red, α-cell marker), and DAPI (blue). Slides were imaged with an Olympus FV1000 confocal microscope. Representative images are shown in (C). (D) Quantification of total islet area per section and β-cell number per islet. Total area of all islets per section calculated for a total of six sections using insulin-positive cells to demarcate islets. Data are the means±SEM of six sections from three mice. *p<0.05 **p<0.01, and ***p<0.001 by Student's t-test.
We next evaluated the in vivo efficacy of 13d using a streptozotocin (STZ)-induced diabetic mouse model. STZ induces ER stress in β-cells in addition to the increase in reactive oxygen species (ROS) production and DNA alkylation. C57BL/6 mice injected intraperitoneally with low dose STZ (50 mg/kg) once daily for 5 consecutive days develop diabetes; blood glucose levels increased gradually within a week of STZ treatment.
All procedures involving animals were performed in accordance with the protocol approved by the University of Oklahoma Health Science Center Institutional Animal Care and Use Committee (IACUC). C57BL/6 mice were obtained from The Jackson Laboratory (Bar Harbor, Me.) and maintained on a 12 h light (6:00 AM-6:00 PM)-12 h dark (6:00 PM-6:00 AM) cycle at an ambient temperature of 21° C. Mice were given free access to water and food. All experiments were performed with age-matched male mice. Compounds were dosed during light cycle. For streptozotocin (STZ)-induced diabetic model, ten-week-old C57BL/6 mice were injected intraperitoneally (i.p.) once daily for five days with STZ (dissolved in Na-Citrate Buffer; 50 mg/kg) and either 13d (5 mg/kg body weight; 2 mg/ml in 10% DMSO in saline buffer; n=7 mice) or vehicle (n=6 mice). Injections of vehicle or 13d alone were then continued for 2 more weeks. Every third day, animals were fasted for 5 h and blood was obtained by tail snip. Blood glucose levels were measured using a glucometer (Nova Statstrip Xpress; Data Science International, St. Paul, Minn.). At the end of the treatment period, mice were sacrificed and the pancreases were removed, fixed in formalin, and paraffin-embedded. Tissue blocks were serially sectioned at intervals of 100 μm and 6 sections were stained with an anti-insulin antibody (A0564, 1:500 dilution; Dako), anti-glucagon antibody (G2654, 1:500 dilution; Sigma), and DAPI (0.5 μg/ml). Insulin-positive cells were used to demarcate islets, and the total islet area was measured with an Olympus FV1000 confocal microscopy and quantified with Image-J histogram software.

O=C(NCc1ccc(C(F)(F)F)cc1)c1cccc(CN2CCCCC2)c1 [Compound 13d, N-(4-trifluoromethylphenmethyl)-3-(N-piperidinyl)methyl benzamide]
Tm-induced increase in XBP1s mRNA level (qRT-PCR) (XBP1s mRNA): abolished
Tm-induced generation of XBP1s mRNA (RT-PCR, electrophoretic separation) (XBP1s mRNA; FIG. 6B): inhibits
total pancreatic islet β-cell area compared to vehicle-treated mice ([1]; STZ mice, 5 mg/kg): more than double
fasting blood glucose level ([1]; STZ mice, 5 mg/kg i.p. once daily, after 3 weeks of treatment): 314 mg/dL
total pancreatic islet β-cell area ([1]; STZ mice, 5 mg/kg, pancreatic sections at end of treatment): 67.4±5.9%
average number of α-cells ([1]; STZ mice, 5 mg/kg, vehicle vs 13d groups): no obvious effect
intraperitoneal glucose tolerance test, blood glucose vs vehicle-treated STZ group ([1]; overnight fasted STZ mice, 5 mg/kg, glucose 2 g/kg i.p.): lower blood glucose levels at 15, and 30 min
